Results reported in patent US9315475B2 (MERCK SHARP & DOHME CORP., priority 2011, dated 2016).

Key:
HIV-1 (H9IIIB strain) = assay: Antiviral acute infection assay in cell culture (Spread); type: cell-based; settings: Human immunodeficiency virus 1, T-lymphoid, HIV-1 H9IIIB infection of MT-4 human T-lymphoid cells in 10% FBS; mean of at least two independent experiments
Description: Antiviral Assays in Cell Culture (“Spread”)
Acute Infection Assay (“Spread”) data were generated using HIV-1 (H9IIIB strain) infection of MT-4 human T-lymphoid cells in 10% FBS, and according to the methods disclosed by J. P. Vacca et al, “L-735,524: An orally bioavailable human immunodeficiency virus type 1 protease inhibitor,” Proc. Natl. Acad. Sci. USA, Vol. 91, pp. 4096-4100 (April 1994).

wildtype HIV-1 protease = target: T1, wildtype HIV-1 protease (Human immunodeficiency virus type 1 group M subtype B, UniProt P04585); assay: Assay for inhibition of microbial expressed HIV protease (Pepcleav); type: biochemical; settings: wild type HIV-1 protease expressed in E. coli, peptide substrate, pH 5.5; mean of at least two independent experiments; read-out: Pepcleav
T1 construct: the wildtype HIV-1 protease (which was expressed in Escherichia coli); made in house; host or cells: Escherichia coli
In short: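 Cleavage of 400 μM peptide substrate Val-Ser-Gln-Asn-(βnaphthyl)Ala-Pro-Ile-Val by 20 pM wild-type enzyme (E. coli-expressed) ran 1 h at 30 °C after 30 min inhibitor preincubation, pH 5.5 acetate buffer. Inhibition derived from product peak area by C18 LC with multiple-reaction-monitoring MS after formic acid quench.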

## O=C(C[C@H](c1ccc(F)cc1)c1cncc(F)c1)Nc1cccc(F)c1CC[C@@H]1CN[C@H](COC(=O)NCC(F)(F)F)CO1 [Example 161, {(3S,6R)-6-[2-(2-fluoro-6-{[(3R)-3-(4-fluorophenyl)-3-(5-fluoropyridin-3-yl)propanoyl]amino}phenyl)ethyl]morpholin-3-yl}methyl (2,2,2-trifluoroethyl)carbamate]
HIV-1 (H9IIIB strain)
  EC50: 0.07 µM
Wildtype HIV-1 protease
  IC50: 0.012 µM

## CS(=O)(=O)c1cccc([C@@H](CC(=O)Nc2cccc(F)c2CC[C@@H]2CN[C@H](COC(=O)NCC(F)(F)F)CO2)c2ccc(Cl)cc2)c1 [Example 164, [(3S,6R)-6-{2-[2-({(3S)-3-(4-chlorophenyl)-3-[3-(methylsulfonyl)phenyl]propanoyl}amino)-6-fluorophenyl]ethyl}morpholin-3-yl] methyl (2,2,2-trifluoroethyl)carbamate]
HIV-1 (H9IIIB strain)
  EC50: 0.063 µM
Wildtype HIV-1 protease
  IC50: 0.0034 µM

## CCC(CO)NC(=O)OC[C@@H]1CO[C@H](CCc2c(F)cncc2NC(=O)CC(c2ccc(F)cc2)c2ccc(F)cc2)CN1 (stereo partly drawn) [Example 165, {(3S,6R)-6-[2-(3-{[3,3-bis(4-fluorophenyl)propanoyl]amino}-5-fluoropyridin-4-yl)ethyl]morpholin-3-yl}methyl [1-(hydroxy-methyl)propyl]carbamate]
HIV-1 (H9IIIB strain)
  EC50: 0.04 µM
Wildtype HIV-1 protease
  IC50: 0.0045 µM

## CC1(CNC(=O)OC[C@@H]2CO[C@H](CCc3c(F)cncc3NC(=O)CC(c3ccc(F)cc3)c3ccc(F)cc3)CN2)CCCO1 (stereo partly drawn) [Example 166, {(3S,6R)-6-[2-(3-{[3,3-bis(4-fluoro-phenyl)propanoyl]amino}-5-fluoropyridin-4-yl)ethyl]morpholin-3-yl]methyl [(2-methyltetrahydrofuran-2-yl)methyl]carbamate]
HIV-1 (H9IIIB strain)
  EC50: 0.037 µM
Wildtype HIV-1 protease
  IC50: 0.014 µM

## O=C(CC(c1ccc(F)cc1)c1ccc(F)cc1)Nc1cncc(F)c1CC[C@@H]1CN[C@H](COC(=O)NC(CO)C(F)(F)F)CO1 (stereo partly drawn) [Example 167, {(3S,6R)-6-[2-(3-{[3,3-bis(4-fluoro-phenyl)propanoyl]amino}-5-fluoropyridin-4-yl)ethyl]morpholin-3-yl}methyl [2,2,2-trifluoro-1-(hydroxymethyl)ethyl] carbamate]
HIV-1 (H9IIIB strain)
  EC50: 1.25 µM
Wildtype HIV-1 protease
  IC50: 0.0015 µM

## C[C@H](Oc1c(F)cccc1NC(=O)[C@@H](N)C(c1ccc(F)cc1)c1ccc(F)cc1)[C@@H]1CN[C@H](COC(=O)NCC(F)(F)F)CO1 [Example 193, 4-fluoro-β-(4-fluorophenyl)-N-(3-fluoro-2-{(1S)-1-[(2S,5S)-5-({[(2,2,2-trifluoroethyl)carbamoyl]oxy}methyl)morpholin-2-yl]ethoxy}phenyl)-L-phenylalaninamide]
HIV-1 (H9IIIB strain)
  EC50: 1.4 µM
Wildtype HIV-1 protease
  IC50: 0.12 µM

## N[C@H](C(=O)Nc1cccc(F)c1CC[C@@H]1CN[C@H](COC(=O)NCc2cccnc2)CO1)C(c1ccc(F)cc1)c1ccc(F)cc1 [Example 201, 4-fluoro-β-(4-fluorophenyl)-N-(3-fluoro-2-{2-[(2R,5S)-5-({[(pyridin-3-ylmethyl)carbamoyl]oxy}methyl)morpholin-2-yl]ethyl}phenyl)-L-phenylalaninamide]
HIV-1 (H9IIIB strain)
  EC50: 0.08 µM
Wildtype HIV-1 protease
  IC50: 0.028 µM

## CN[C@H](C(=O)Nc1cncc(F)c1CC[C@@H]1CN[C@H](COC(=O)NCC(F)(F)F)CO1)C(c1ccc(F)cc1)c1ccc(F)cc1 [Example 202, 4-fluoro-β-(4-fluorophenyl)-N-(5-fluoro-4-{2-[(2R,5S)-5-({[(2,2,2-trifluoroethyl)carbamoyl]oxy}methyl)morpholin-2-yl]ethyl}pyridin-3-yl)-Nα-methyl-L-phenylalaninamide]
HIV-1 (H9IIIB strain)
  EC50: 0.065 µM
Wildtype HIV-1 protease
  IC50: 0.028 µM

## CNC(=O)OC[C@@H]1CO[C@H](CCc2c(F)cncc2NC(=O)[C@@H](N)C(c2ccc(F)cc2)c2ccc(F)cc2)CN1 [Example 205, 4-fluoro-N-(5-fluoro-4-{2-[(2R,5S)-5-{[(methylcarbamoyl)oxy]methyl}morpholin-2-yl]ethyl}pyridin-3-yl)-β-(4-fluorophenyl)-L-phenylalaninamide]
HIV-1 (H9IIIB strain)
  EC50: 0.058 µM
Wildtype HIV-1 protease
  IC50: 0.024 µM

## NC(=O)OC[C@@H]1CO[C@H](COc2c(F)cncc2NC(=O)[C@@H](N)C(c2ccc(F)cc2)c2ccc(F)cc2)CN1 [Example 206, N-[4-({(2S,5S)-5-[(carbamoyloxy)methyl]morpholin-2-yl}methoxy)-5-fluoropyridin-3-yl]-4-fluoro-β-(4-fluorophenyl)-L-phenylalaninamide]
HIV-1 (H9IIIB strain)
  EC50: 0.12 µM
Wildtype HIV-1 protease
  IC50: 0.021 µM

## CCNC(=O)OC[C@@H]1CO[C@H](CCc2c(F)cncc2NC(=O)[C@@H](N)C(c2ccc(F)cc2)c2ccc(F)cc2)CN1 [Example 207, N-(4-{2-[(2R,5S)-5-{[(ethylcarbamoyl)oxy]methyl}morpholin-2-yl]ethyl}-5-fluoropyridin-3-yl)-4-fluoro-β-(4-fluorophenyl)-L-phenylalaninamide]
HIV-1 (H9IIIB strain)
  EC50: 0.11 µM
Wildtype HIV-1 protease
  IC50: 0.02 µM

## N[C@H](C(=O)Nc1cncc(F)c1CC[C@@H]1CN[C@H](COC(=O)NCC2CCOCC2)CO1)C(c1ccc(F)cc1)c1ccc(F)cc1 [Example 208, 4-fluoro-β-(4-fluorophenyl)-N-(5-fluoro-4-{2-[(2R,5S)-5-({[(tetrahydro-2H-pyran-4-ylmethyl)carbamoyl]oxy}methyl)morpholin-2-yl]ethyl}pyridin-3-yl)-L-phenylalaninamide]
HIV-1 (H9IIIB strain)
  EC50: 0.1 µM
Wildtype HIV-1 protease
  IC50: 0.018 µM

## C[C@H](NC(=O)OC[C@@H]1CO[C@H](CCc2c(F)cccc2NC(=O)[C@@H](N)C(c2ccc(F)cc2)c2ccc(F)cc2)CN1)c1ccc(F)cc1 [Example 212, 4-fluoro-N-[3-fluoro-2-(2-{(2R,5S)-5-[({[(1S)-1-(4-fluorophenyl)ethyl]carbamoyl}oxy)methyl]morpholin-2-yl}ethyl)phenyl]-β-(4-fluorophenyl)-L-phenylalaninamide]
HIV-1 (H9IIIB strain)
  EC50: 0.81 µM
Wildtype HIV-1 protease
  IC50: 0.011 µM

## N[C@H](C(=O)Nc1cncc(F)c1CC[C@@H]1CN[C@H](COC(=O)NCC2CCCCO2)CO1)C(c1ccc(F)cc1)c1ccc(F)cc1 (stereo partly drawn) [Example 213, 4-fluoro-β-(4-fluorophenyl)-N-(5-fluoro-4-{2-[(2R,5S)-5-({[(tetrahydro-2H-pyran-2-ylmethyl)carbamoyl]oxy}methyl)morpholin-2-yl]ethyl}pyridin-3-yl)-L-phenylalaninamide]
HIV-1 (H9IIIB strain)
  EC50: 0.061 µM
Wildtype HIV-1 protease
  IC50: 0.0061 µM

## N[C@H](C(=O)Nc1cncc(F)c1CC[C@@H]1CN[C@H](COC(=O)NC2(c3ccccn3)CC2)CO1)C(c1ccc(F)cc1)c1ccc(F)cc1 [Example 214, 4-fluoro-β-(4-fluorophenyl)-N-(5-fluoro-4-{2-[(2R,5S)-5-({[(1-pyridin-2-ylcyclopropyl)carbamoyl]oxy}methyl)morpholin-2-yl]ethyl}pyridin-3-yl)-L-phenylalaninamide]
HIV-1 (H9IIIB strain)
  EC50: 0.058 µM
Wildtype HIV-1 protease
  IC50: 0.0052 µM

## N[C@H](C(=O)Nc1cncc(F)c1CC[C@@H]1CN[C@H](COC(=O)NC[C@H]2CCCO2)CO1)C(c1ccc(F)cc1)c1ccc(F)cc1 [Example 215, 4-fluoro-β-(4-fluorophenyl)-N-[5-fluoro-4-(2-{(2R,5S)-5-[({[(2R)-tetrahydrofuran-2-ylmethyl]carbamoyl}oxy)methyl]morpholin-2-yl}ethyl)pyridin-3-yl]-L-phenylalaninamide]
HIV-1 (H9IIIB strain)
  EC50: 0.025 µM
Wildtype HIV-1 protease
  IC50: 0.0035 µM

## CC[C@@H](NC(=O)OC[C@@H]1CO[C@H](CCc2c(F)cncc2NC(=O)[C@@H](N)C(c2ccc(F)cc2)c2ccc(F)cc2)CN1)C(F)(F)F [Example 216]
HIV-1 (H9IIIB strain)
  EC50: 2 µM
Wildtype HIV-1 protease
  IC50: 0.0033 µM
